Experimental data: patent US12227501B2, “3-amino-2-[2-(acylamino)pyridin-4-yl]-1,5,6,7-tetrahydro-4h-pyrrolo[3,2-c]pyridin-4-one as CSNK1 inhibitors” (Bayer Aktiengesellschaft, priority 2019, dated 2025)
Values joined by “and” are separate entries in the source; they are usually repeats but may differ in a detail not shown here. Equal values may be shown once. Read-outs that look alike come from different tables or passages of the source.

Columns and labels:
Format in all cases: biochemical
human CSNK1A1 = human CSNK1A1 (Homo sapiens (Human), UniProt P48729); assay: CSNK1A1 Assay 1 (ADP-Glo, 1 μM ATP); details: read-out: CSNK1A1 Assay 1 IC50 [mol/l] (median)
Procedure: CSNK1A1-inhibitory activity of compounds of the present invention in presence of 1 μM adenosine-tri-phosphate (ATP) was quantified employing the CSNK1A1 assay as described in the following paragraphs. In essence, the enzyme activity is measured by quantification of the adenosine-di-phosphate (ADP), which is generated as a co-product of the enzyme reaction, via the “ADP-Glo™ Kinase Assay” kit from the company Promega. This detection system works as follows: In a first step the ATP not consumed in the kinase reaction is quantitatively converted to cAMP employing an adenylate cyclase (“ADP-Glo-reagent”), then the adenylate cyclase is stopped and the ADP generated in the kinase reaction converted to ATP which generates in a luciferase-based reaction a glow-luminescence signal (“Kinase Detection Reagent”). Recombinant fusion protein of N-terminal Glutathion-S-Transferase (GST) and full-length human CSNK1A1, expressed by baculovirus infected insect cells and purified via Glutathion affinity chromatography, was purchased from Life Technologies (product no. PV4174) and used as enzyme. As substrate for the kinase reaction the biotinylated peptide Btn-Ahx-[…] (C-terminus in amide form) was used which can be purchased e.g. from the company Biosyntan (Berlin-Buch, Germany).
For the assay 50 nl of a 100 fold concentrated solution of the test compound in DMSO was pipetted into a white 1536-well microtiter plate (Greiner Bio-One, Frickenhausen, Germany), 2 μL of a solution of CSNK1A1 in aqueous assay buffer [50 mM HEPES pH 7.5, 10% (v/v) glycerol, 10 mM MgCl2, 50 mM NaCl, 1 mM dithiothreitol, 0.01% (w/v) bovine serum albumin, 0.01% (v/v) Triton X-100] were added and the mixture was incubated for 15 min at 22° C. to allow pre-binding of the test compounds to the enzyme before the start of the kinase reaction. […] The concentration of CSNK1A1 was adjusted depending of the activity of the enzyme lot and was chosen appropriate to have the assay in the linear range, a typical concentration is 0.15 ng/μL. The reaction was stopped by the addition of 2.5 μL of “ADP-Glo-reagent” (1:1.5 fold diluted with water) and the resulting mixture was incubated at 22° C. for 1 h to convert the ATP not consumed in the kinase reaction completely […]. Subsequently 2.5 μL of the “kinase detection reagent” (1.2 fold more concentrated than recommended by the producer) were added, the resulting mixture was incubated at 22° C. for 1 h and then the luminescence measured with a suitable measurement instrument (e.g. Viewlux™ from Perkin-Elmer). The amount of emitted light was taken as a measure for the amount of ADP generated and thereby for the activity of the CSNK1A1.

human CSNK1D = human CSNK1D (Homo sapiens (Human), UniProt P48730); assay: CSNK1D Assay (ADP-Glo, 1 μM ATP); details: read-out: CSNK1D IC50 [mol/l] (median)
How it was run: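 GST-tagged full-length human CSNK1D from baculovirus-infected insect cells, typically ~0.5 ng/μL, with biotinylated peptide substrate and 1 μM ATP in HEPES pH 7.5 buffer. Compound is preincubated with enzyme 15 min at 22 °C. ADP formed is quantified by ADP-Glo luminescence.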

[1] = biological target: wild-type Epidermal Growth Factor Receptor (EGFR) (Homo sapiens (Human), UniProt P00533); assay: WT-EGFR Kinase Assay (TR-FRET, 2 mM ATP)
[2] = EGFR Wildtyp- 2 mM ATP IC50 [mol/l] (median)
[3] = substrate Btn-Ahx-SGSEGDSESGEEEG
[4] = read-out: EGFR Wildtyp- 2 mM ATP IC50 [mol/l] (median)

wild-type Epidermal Growth Factor Receptor (EGFR), sequence (P00533 669-1210): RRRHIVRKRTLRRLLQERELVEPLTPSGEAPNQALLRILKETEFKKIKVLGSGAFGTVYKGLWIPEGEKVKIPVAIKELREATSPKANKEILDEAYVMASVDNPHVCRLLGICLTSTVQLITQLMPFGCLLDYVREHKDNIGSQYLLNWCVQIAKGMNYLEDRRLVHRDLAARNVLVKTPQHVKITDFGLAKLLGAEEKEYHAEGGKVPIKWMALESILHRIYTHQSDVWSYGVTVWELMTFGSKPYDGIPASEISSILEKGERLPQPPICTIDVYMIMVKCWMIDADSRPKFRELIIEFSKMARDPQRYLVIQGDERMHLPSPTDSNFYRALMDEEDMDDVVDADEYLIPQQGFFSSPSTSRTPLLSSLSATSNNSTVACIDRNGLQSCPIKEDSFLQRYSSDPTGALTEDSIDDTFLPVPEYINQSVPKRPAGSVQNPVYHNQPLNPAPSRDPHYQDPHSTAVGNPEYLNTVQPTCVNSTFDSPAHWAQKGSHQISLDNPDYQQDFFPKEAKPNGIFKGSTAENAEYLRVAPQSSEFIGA
human CSNK1D, sequence (P48730 whole entry): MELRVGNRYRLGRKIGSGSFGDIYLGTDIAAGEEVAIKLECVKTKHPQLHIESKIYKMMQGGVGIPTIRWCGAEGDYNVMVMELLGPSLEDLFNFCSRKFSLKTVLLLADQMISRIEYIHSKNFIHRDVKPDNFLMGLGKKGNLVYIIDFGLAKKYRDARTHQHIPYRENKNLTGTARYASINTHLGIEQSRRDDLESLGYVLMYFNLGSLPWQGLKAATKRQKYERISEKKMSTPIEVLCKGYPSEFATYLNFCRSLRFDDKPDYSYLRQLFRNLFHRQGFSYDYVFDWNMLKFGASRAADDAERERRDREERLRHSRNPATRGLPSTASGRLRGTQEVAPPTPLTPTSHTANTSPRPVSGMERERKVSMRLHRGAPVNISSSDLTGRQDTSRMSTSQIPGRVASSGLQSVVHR
human CSNK1A1, sequence (P48729 whole entry): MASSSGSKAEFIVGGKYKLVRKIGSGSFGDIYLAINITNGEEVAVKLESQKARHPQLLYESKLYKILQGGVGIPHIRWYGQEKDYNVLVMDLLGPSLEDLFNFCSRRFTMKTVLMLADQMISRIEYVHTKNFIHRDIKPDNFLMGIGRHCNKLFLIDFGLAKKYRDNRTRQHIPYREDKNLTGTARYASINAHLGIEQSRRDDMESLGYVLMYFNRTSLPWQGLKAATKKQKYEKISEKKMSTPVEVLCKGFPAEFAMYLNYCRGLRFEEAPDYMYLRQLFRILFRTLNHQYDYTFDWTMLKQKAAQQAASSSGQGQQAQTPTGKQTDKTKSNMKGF

Row | Structure (SMILES) | IC50 (human CSNK1A1; substrate Btn-Ahx-[…]) | IC50 (human CSNK1D) | IC50 [1, 2] | IC50 (human CSNK1A1; [3]) | IC50 [1, 4]
1 | C[C@@H](C(=O)Nc1cc(-c2[nH]c3c(c2Nc2ccccc2)C(=O)N(C)CC3)ccn1)c1ccc(F)cc1 (single isomer, unassigned) [Example 6] | 33.3 nM | 49.6 nM | 16.1 µM and 15.6 µM and 18.2 µM and > 20 µM (2×) and 15.9 µM and 17.1 µM |  | 
2 | C[C@H](C(=O)Nc1cc(-c2[nH]c3c(c2Nc2ccccc2)C(=O)N(C)CC3)ccn1)c1ccc(F)cc1 (single isomer, unassigned) [Example 5] | 3.62 nM | 12.1 nM |  |  | 
3 | CN1CCc2[nH]c(-c3ccnc(NC(=O)Cc4ccc(F)cc4)c3)c(Nc3ccccc3)c2C1=O [Example 1, N-[4-(3-anilino-5-methyl-4-oxo-4,5,6,7-tetrahydro-1H-pyrrolo[3,2-c]pyridin-2-yl)pyridin-2-yl]-2-(4-fluorophenyl)acetamide] |  | 5.64 nM |  | 2.54 nM | 1200 nM
4 | CC(C(=O)Nc1cc(-c2[nH]c3c(c2Nc2ccccc2)C(=O)N(C)CC3)ccn1)c1ccc(F)cc1 (stereo not drawn) [Example 4, N-[4-(3-anilino-5-methyl-4-oxo-4,5,6,7-tetrahydro-1H-pyrrolo[3,2-c]pyridin-2-yl)pyridin-2-yl]-2-(4-fluorophenyl)propanamide] |  | 15.1 nM | 12600 nM and 11200 nM | 11.2 nM | > 20000 nM
